Our source for the EC50 and CC50 values is ChEMBL document CHEMBL1155927, “Synthesis and evaluation of 5'-modified 2'-deoxyadenosine analogues as anti-hepatitis C virus agents” (Bioorg Med Chem Lett, 2008).

Molecules are shown by their SMILES. Where only a bound is given, the exact number is not on record here.

In one series the test system is Hepatitis C virus. Briefly: Antiviral activity against HCV assessed as inhibition of viral RNA replication in Huh7 cells. The settings on record: Huh-7. Type of series: functional, organism-based, Hepacivirus hominis.
Series [1] can be described thus: Cytotoxicity in human Huh7 cells by XTT assay. Type of series: cell-based, Huh-7.

On to `Nc1ncnc2c1ncn2[C@H]1C[C@H](O)[C@@H](CCC(=O)c2ccccc2)O1`, for which the concentration giving a half-maximal response (EC50) in the series with Hepatitis C virus is more than 200 µM.
Turning to `CON(C)C(=O)CC[C@H]1O[C@@H](n2cnc3c(Cl)ncnc32)C[C@@H]1O`, the EC50 with Hepatitis C virus came out at 40.4 µM. This compound showed a CC50 in series [1] of more than 200 µM.
As for `COC(=O)CC[C@H]1O[C@@H](n2cnc3c(N)ncnc32)C[C@@H]1O`, the 50% effective concentration (EC50) with Hepatitis C virus was more than 200 µM.
With `O=C(CC[C@H]1O[C@@H](n2cnc3c(Cl)ncnc32)C[C@@H]1O)c1ccccc1`, in the series with Hepatitis C virus, the EC50 was 15.1 µM. In series [1], this compound registered a 50% cytotoxic concentration (CC50) of 76.3 µM.
With `CON(C)C(=O)CC[C@H]1O[C@@H](n2cnc3c(N)ncnc32)C[C@@H]1O`, the concentration giving a half-maximal response (EC50) in the series with Hepatitis C virus was more than 200 µM.
For `COC(=O)CC[C@H]1O[C@@H](n2cnc3c(Cl)ncnc32)C[C@@H]1O`, the EC50 in the series on Hepatitis C virus turned out to be 32.9 µM. The cytotoxic concentration (CC50) in series [1] is more than 200 µM.
